Assays:
[1] = tested on: neuroblastoma/glioma cells (NG 108-15); experiment: Formation of tritiated CDP-choline from tritiated choline in neuroblastoma/glioma cells; type: cell-based; settings: NG 108-15 cells, cytidine 25 µM, 90 minutes
From the text: CDP-choline is the immediate precursor for the phosphatidylcholine in membranes of neurons and other cells and its formation controls the production of phosphatidylcholine.

[2] = tested on: brain levels of cytidine and cytidine-(5')-diphosphate-choline (CDP-choline); settings: rats, cytidine 1 g/kg ip, sacrificed after 1 hour, vs placebo

SMILES: Nc1ccn([C@@H]2O[C@H](CO)[C@@H](O)[C@H]2O)c(=O)n1 [cytidine]
- newly-formed CDP-choline in cells incubated with supplemental cytidine vs without cytidine [1]: almost twice as much
- brain CDP-choline levels rose by [2]: about 50%
